Converted amounts (≈) assume the structure as drawn.
Tests used:
[1] = test system: Salmonella typhimurium; test: Antibacterial activity against Salmonella Typhimurium by liquid dilution method; type: functional, Salmonella enterica subsp. enterica serovar Typhimurium; conditions: Salmonella enterica
[2] = test system: Aspergillus flavus; test: Antifungal activity against Aspergillus flavus by liquid dilution method; type: functional
[3] = test system: Aspergillus flavus; test: Antifungal activity against Aspergillus flavus at 1000 ug/mL after 72 hrs by agar diffusion assay; type: functional; conditions: read-out: IZ
[4] = test system: Klebsiella pneumoniae; test: Antibacterial activity against Klebsiella pneumoniae at 1000 ug/mL after 72 hrs by agar diffusion assay; type: functional; conditions: read-out: IZ
[5] = test system: Aspergillus niger; test: Antifungal activity against Aspergillus niger by liquid dilution method; type: functional
[6] = test system: Bacillus subtilis; test: Antibacterial activity against Bacillus subtilis by liquid dilution method; type: functional
[7] = test system: Streptococcus pyogenes; test: Antibacterial activity against Streptococcus pyogenes by liquid dilution method; type: functional
[8] = test system: Salmonella typhimurium; test: Antibacterial activity against Salmonella Typhimurium at 1000 ug/mL after 72 hrs by agar diffusion assay; type: functional, Salmonella enterica subsp. enterica serovar Typhimurium; conditions: Salmonella enterica, read-out: IZ
[9] = test system: Staphylococcus aureus; test: Antibacterial activity against Staphylococcus aureus at 1000 ug/mL after 72 hrs by agar diffusion assay; type: functional; conditions: read-out: IZ
[10] = test system: Staphylococcus aureus; test: Antibacterial activity against Staphylococcus aureus by liquid dilution method; type: functional
[11] = test system: Candida albicans; test: Antifungal activity against Candida albicans at 1000 ug/mL after 72 hrs by agar diffusion assay; type: functional; conditions: read-out: IZ
[12] = test system: Streptococcus pyogenes; test: Antibacterial activity against Streptococcus pyogenes at 1000 ug/mL after 72 hrs by agar diffusion assay; type: functional; conditions: read-out: IZ
[13] = test system: Escherichia coli; test: Antibacterial activity against Escherichia coli by liquid dilution method; type: functional
[14] = test system: Klebsiella pneumoniae; test: Antibacterial activity against Klebsiella pneumoniae by liquid dilution method; type: functional
[15] = test system: Candida albicans; test: Antifungal activity against Candida albicans by liquid dilution method; type: functional
[16] = test system: Bacillus subtilis; test: Antibacterial activity against Bacillus subtilis at 1000 ug/mL after 72 hrs by agar diffusion assay; type: functional; conditions: read-out: IZ
[17] = test system: Aspergillus niger; test: Antifungal activity against Aspergillus niger at 1000 ug/mL after 72 hrs by agar diffusion assay; type: functional; conditions: read-out: IZ
[18] = test system: Escherichia coli; test: Antibacterial activity against Escherichia coli at 1000 ug/mL after 72 hrs by agar diffusion assay; type: functional; conditions: read-out: IZ

Row | Structure (SMILES) | MIC [1] [µg/mL] | MIC [2] [µg/mL] | zone of inhibition at 1000 µg/mL [3] [mm] | zone of inhibition at 1000 µg/mL [4] [mm] | MIC [5] [µg/mL] | MIC [6] [µg/mL] | MIC [7] [µg/mL] | zone of inhibition at 1000 µg/mL [8] [mm] | zone of inhibition at 1000 µg/mL [9] [mm] | MIC [10] [µg/mL] | zone of inhibition at 1000 µg/mL [11] [mm] | zone of inhibition at 1000 µg/mL [12] [mm] | MIC [13] [µg/mL] | MIC [14] [µg/mL] | MIC [15] [µg/mL] | zone of inhibition at 1000 µg/mL [16] [mm] | zone of inhibition at 1000 µg/mL [17] [mm] | zone of inhibition at 1000 µg/mL [18] [mm]
1 | O=c1oc2ccccc2cc1-c1nc2ccccc2c2nc3ccccc3n12 | 25 (≈ 68.8 µM) | 40 (≈ 110 µM) | 32 | 34 | 25 (≈ 68.8 µM) | 45 (≈ 124 µM) | 30 (≈ 82.6 µM) | 32 | 36 | 35 (≈ 96.3 µM) | 27 | 23 | 25 (≈ 68.8 µM) | 30 (≈ 82.6 µM) | 35 (≈ 96.3 µM) | 31 | 34 | 38
2 | O=c1oc2c(Br)cccc2cc1-c1nc2ccccc2c2nc3ccccc3n12 | 35 (≈ 79.1 µM) | 10 (≈ 22.6 µM) | 45 | 31 | 40 (≈ 90.4 µM) | 40 (≈ 90.4 µM) | 35 (≈ 79.1 µM) | 29 | 39 | 40 (≈ 90.4 µM) | 32 | 27 | 45 (≈ 102 µM) | 25 (≈ 56.5 µM) | 40 (≈ 90.4 µM) | 28 | 37 | 28
3 | O=c1oc2c(Cl)cc(Cl)cc2cc1-c1nc2ccccc2c2nc3ccccc3n12 | 2.5 (≈ 5.78 µM) | 35 (≈ 81 µM) | 38 | 47 | 35 (≈ 81 µM) | 10 (≈ 23.1 µM) | 10 (≈ 23.1 µM) | 48 | 50 | 2.5 (≈ 5.78 µM) | 39 | 38 | 10 (≈ 23.1 µM) | 5 (≈ 11.6 µM) | 50 (≈ 116 µM) | 42 | 38 | 44
4 | O=c1oc2c(Br)cc(Br)cc2cc1-c1nc2ccccc2c2nc3ccccc3n12 | 30 (≈ 57.6 µM) | 15 (≈ 28.8 µM) | 46 | 38 | 20 (≈ 38.4 µM) | 50 (≈ 95.9 µM) | 20 (≈ 38.4 µM) | 36 | 39 | 40 (≈ 76.8 µM) | 41 | 36 | 15 (≈ 28.8 µM) | 35 (≈ 67.2 µM) | 15 (≈ 28.8 µM) | 34 | 48 | 41
5 | Cc1cccc2cc(-c3nc4ccccc4c4nc5ccccc5n34)c(=O)oc12 | 20 (≈ 53 µM) | 35 (≈ 92.7 µM) | 35 | 31 | 50 (≈ 132 µM) | 45 (≈ 119 µM) | 45 (≈ 119 µM) | 35 | 32 | 30 (≈ 79.5 µM) | 32 | 24 | 40 (≈ 106 µM) | 30 (≈ 79.5 µM) | 45 (≈ 119 µM) | 30 | 27 | 32
6 | O=c1oc2ccc([N+](=O)[O-])cc2cc1-c1nc2ccccc2c2nc3ccccc3n12 | 25 (≈ 61.2 µM) | 45 (≈ 110 µM) | 30 | 29 | 45 (≈ 110 µM) | 10 (≈ 24.5 µM) | 40 (≈ 97.9 µM) | 32 | 24 | 35 (≈ 85.7 µM) | 27 | 28 | 30 (≈ 73.5 µM) | 40 (≈ 97.9 µM) | 50 (≈ 122 µM) | 27 | 29 | 35
7 | O=c1oc2ccccc2cc1-c1nc2ccccc2c2nc3c4nsnc4ccc3n12 | 30 (≈ 71.2 µM) | 35 (≈ 83 µM) | 35 | 27 | 40 (≈ 94.9 µM) | 50 (≈ 119 µM) | 45 (≈ 107 µM) | 24 | 31 | 50 (≈ 119 µM) | 26 | 22 | 45 (≈ 107 µM) | 35 (≈ 83 µM) | 45 (≈ 107 µM) | 32 | 22 | 26
8 | O=c1oc2c(Br)cccc2cc1-c1nc2ccccc2c2nc3c4nsnc4ccc3n12 | 35 (≈ 70 µM) | 50 (≈ 99.9 µM) | 33 | 30 | 35 (≈ 70 µM) | 40 (≈ 79.9 µM) | 40 (≈ 79.9 µM) | 29 | 35 | 30 (≈ 60 µM) | 29 | 23 | 35 (≈ 70 µM) | 25 (≈ 50 µM) | 35 (≈ 70 µM) | 29 | 31 | 31
9 | O=c1oc2c(Cl)cc(Cl)cc2cc1-c1nc2ccccc2c2nc3c4nsnc4ccc3n12 | 25 (≈ 51 µM) | 50 (≈ 102 µM) | 29 | 34 | 40 (≈ 81.6 µM) | 45 (≈ 91.8 µM) | 35 (≈ 71.4 µM) | 31 | 39 | 35 (≈ 71.4 µM) | 26 | 20 | 30 (≈ 61.2 µM) | 35 (≈ 71.4 µM) | 45 (≈ 91.8 µM) | 34 | 33 | 32
10 | CC1(C)S[C@@H]2[C@H](NC(=O)[C@H](N)c3ccccc3)C(=O)N2[C@H]1C(=O)O [AMPICILLIN] | 10 (≈ 28.6 µM) |  |  | 45 |  | 20 (≈ 57.2 µM) | 25 (≈ 71.5 µM) | 45 | 48 | 10 (≈ 28.6 µM) |  | 35 | 15 (≈ 42.9 µM) | 10 (≈ 28.6 µM) |  | 39 |  | 40
11 | CC(=O)N1CCN(c2ccc(OCC3COC(Cn4ccnc4)(c4ccc(Cl)cc4Cl)O3)cc2)CC1 (stereo not given) [KETOCONAZOLE] |  | 15 (≈ 28.2 µM) | 43 |  | 15 (≈ 28.2 µM) |  |  |  |  |  | 40 |  |  |  | 25 (≈ 47 µM) |  | 45 | 
